How the values were obtained:
[1] = Phase 1 open-label study: safety and tolerability of single inhaled nezulcitinib doses under supplemental oxygenation scenarios; type: in vivo, human
Text: Part B: assessed the safety and tolerability of nezulcitinib following single inhaled doses administered in the setting of various supplemental oxygenation scenarios in healthy participants.
Safety was monitored through physical examinations including, at a minimum, examination of respiratory, cardiovascular, and gastrointestinal systems, with the option for further focused examination of additional systems as necessary based on reported symptoms/AEs, vital signs, 12-lead safety ECGs, spirometry, body weight monitoring, pulse oximetry, clinical laboratory tests (including, but not limited to, hematology, clinical chemistry profile, coagulation, and urinalysis), and AEs.
AEs were coded using the most current version of Medical Dictionary for Regulatory Activities (MedDRA®).
Summaries of administration-emergent adverse events (AEAEs) were presented by SOC, preferred term, and the frequency and percentage of participants reporting each observed event. The frequency of participants who experience AEAEs was summarized overall and by study part and administration. AEs were also summarized by relationship to administration (study drug) and severity.
All clinical laboratory results, 12-lead safety ECGs, spirometry measurements, pulse oximetry, vital signs measurements, and their change from baseline, were summarized by study part, administration, and time point of collection.
Safety (i.e., physical examinations, vital signs, 12-lead safety ECGs, spirometry, clinical laboratory tests, and AEs) were assessed throughout the study; blood, urine, and expired air samples were collected for safety assessments. Blood oxygenation levels were monitored via pulse oximetry prior to and during administration of supplemental oxygen. Discontinued participants were not replaced.

[2] = system: subjects infected with COVID; assay: Phase 2 clinical study in subjects infected with COVID: efficacy; type: in vivo, human; settings: for time to recovery, median: vs placebo 11; for 28-day all-cause mortality, HR / time to recovery, HR: vs placebo
Description: Compound 1 has been studied in a phase 2 clinical study in subjects infected with COVID.
Importantly, in a post-hoc analysis of subjects with baseline CRP (n=201), in subjects with CRP <150 mg/L (n=171), there was an improvement in those treated with compound 1 when compared to placebo in: • 28-day all-cause mortality (total number of deaths: 1 vs 9, HR: 0.097, p=0.009). • time to recovery (median: 10 vs. 11 days, HR: 1.48, p=0.02).
In subjects with CRP >150 mg/L (n=30), there was no difference in time to recovery or 28-day all-cause mortality between those treated with compound 1 or placebo.

Abl2 = Abl2 (Homo sapiens, UniProt P42684); assay: Abelson kinase inhibition; type: biochemical
Sequence of Abl2 (P42684 whole entry): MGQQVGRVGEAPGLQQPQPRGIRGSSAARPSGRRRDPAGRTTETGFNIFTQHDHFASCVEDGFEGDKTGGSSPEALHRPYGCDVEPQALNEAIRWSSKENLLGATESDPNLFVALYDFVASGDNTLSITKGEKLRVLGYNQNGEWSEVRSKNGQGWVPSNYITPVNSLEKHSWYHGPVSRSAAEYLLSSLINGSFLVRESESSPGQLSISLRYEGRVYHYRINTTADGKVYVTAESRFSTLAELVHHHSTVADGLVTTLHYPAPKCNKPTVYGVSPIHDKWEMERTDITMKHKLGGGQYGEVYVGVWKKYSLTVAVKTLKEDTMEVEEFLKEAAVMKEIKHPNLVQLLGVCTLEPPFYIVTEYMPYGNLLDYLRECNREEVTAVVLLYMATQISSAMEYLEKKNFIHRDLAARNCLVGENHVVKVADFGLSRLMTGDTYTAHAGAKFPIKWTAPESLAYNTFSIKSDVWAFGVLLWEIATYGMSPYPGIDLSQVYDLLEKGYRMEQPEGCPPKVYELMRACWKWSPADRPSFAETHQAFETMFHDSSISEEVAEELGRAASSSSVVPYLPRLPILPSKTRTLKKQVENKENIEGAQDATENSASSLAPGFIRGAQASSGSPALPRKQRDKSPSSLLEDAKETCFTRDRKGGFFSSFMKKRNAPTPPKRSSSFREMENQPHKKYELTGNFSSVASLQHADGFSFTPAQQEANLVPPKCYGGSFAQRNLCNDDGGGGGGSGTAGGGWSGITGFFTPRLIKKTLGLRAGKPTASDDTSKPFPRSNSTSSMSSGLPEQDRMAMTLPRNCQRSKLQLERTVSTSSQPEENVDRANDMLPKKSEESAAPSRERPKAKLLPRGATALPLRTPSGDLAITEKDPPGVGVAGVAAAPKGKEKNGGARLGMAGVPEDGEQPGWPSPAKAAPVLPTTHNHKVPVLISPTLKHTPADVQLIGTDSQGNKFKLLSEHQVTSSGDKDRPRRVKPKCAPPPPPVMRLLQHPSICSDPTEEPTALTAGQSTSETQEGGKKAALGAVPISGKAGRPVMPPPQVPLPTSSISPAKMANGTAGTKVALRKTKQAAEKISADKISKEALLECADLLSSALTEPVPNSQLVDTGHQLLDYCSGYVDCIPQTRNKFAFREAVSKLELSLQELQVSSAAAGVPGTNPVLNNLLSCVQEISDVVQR

[3] = Earlier phase 1 clinical trial, nebulized inhalation: plasma pharmacokinetics; type: in vivo, human; settings: for maximal plasma exposure, fold lower than the protein-adjusted JAK IC50: inhaled
Description: Compound 1 was evaluated in a phase 1 clinical trial and dosed in humans through nebulized inhalation at 1 mg, 3 mg, and 10 mg for up to 7 days. […] The pharmacokinetics of inhaled compound 1 are consistent with low plasma exposures after inhaled administration. […] Additionally, absolute NK cell counts were evaluated after multiple-dosing to assess the potential for systemic pharmacologic effects associated with JAK inhibition by compound 1. […] The lack of reduction in NK cell counts is also consistent with the lack of systemic JAK inhibition. […] Other systemically mediated hematological changes associated with JAK inhibition, including neutrophil and hemoglobin reductions as well as lipid changes, were not observed with inhaled administration of compound 1.
The selected dose of 3 mg in the present study was consistent with the dose in a recently completed Phase 2 study. In addition, the 3 mg dose ensured adequate characterization of the nezulcitinib PK profile. Dose levels up to 9 mg of nezulcitinib were also evaluated (Administration D2). This dose level was within the range of doses tested previously (up to 10 mg of nezulcitinib) in healthy participants and those with COVID-19 in previous clinical studies.

Sulfation metabolism = type: in vitro ADME
JAK1 = JAK1 (Homo sapiens, UniProt P23458); assay: JAK enzyme inhibition; type: biochemical
Sequence of JAK1 (P23458 whole entry): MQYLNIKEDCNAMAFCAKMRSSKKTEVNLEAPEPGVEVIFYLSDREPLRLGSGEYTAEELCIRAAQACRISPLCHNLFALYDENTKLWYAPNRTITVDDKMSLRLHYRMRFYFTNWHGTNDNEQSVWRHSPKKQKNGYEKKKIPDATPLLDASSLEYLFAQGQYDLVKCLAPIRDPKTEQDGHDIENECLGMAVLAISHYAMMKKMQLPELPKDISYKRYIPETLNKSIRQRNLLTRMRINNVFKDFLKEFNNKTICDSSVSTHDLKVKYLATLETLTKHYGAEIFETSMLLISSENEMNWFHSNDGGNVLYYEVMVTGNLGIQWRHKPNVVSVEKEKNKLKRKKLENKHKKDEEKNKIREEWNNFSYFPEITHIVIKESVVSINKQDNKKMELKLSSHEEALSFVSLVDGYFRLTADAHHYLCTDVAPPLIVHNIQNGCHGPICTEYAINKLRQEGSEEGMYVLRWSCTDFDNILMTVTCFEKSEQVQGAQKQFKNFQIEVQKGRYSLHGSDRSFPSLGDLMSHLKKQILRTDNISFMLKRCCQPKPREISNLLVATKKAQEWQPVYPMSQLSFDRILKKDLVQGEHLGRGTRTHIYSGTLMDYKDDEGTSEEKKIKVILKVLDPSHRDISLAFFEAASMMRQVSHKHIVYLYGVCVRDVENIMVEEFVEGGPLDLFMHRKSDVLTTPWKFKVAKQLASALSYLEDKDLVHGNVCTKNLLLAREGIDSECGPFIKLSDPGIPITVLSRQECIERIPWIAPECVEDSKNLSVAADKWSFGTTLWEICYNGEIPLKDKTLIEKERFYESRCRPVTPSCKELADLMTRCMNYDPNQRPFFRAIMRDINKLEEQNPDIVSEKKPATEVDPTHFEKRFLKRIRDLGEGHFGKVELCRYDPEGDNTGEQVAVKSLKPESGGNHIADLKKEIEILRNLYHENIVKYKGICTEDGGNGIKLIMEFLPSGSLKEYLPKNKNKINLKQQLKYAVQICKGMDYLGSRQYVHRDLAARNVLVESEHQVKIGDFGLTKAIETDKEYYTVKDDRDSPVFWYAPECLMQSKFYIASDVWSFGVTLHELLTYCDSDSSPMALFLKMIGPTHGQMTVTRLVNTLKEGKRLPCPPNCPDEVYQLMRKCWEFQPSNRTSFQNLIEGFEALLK

IL-6 signaling = assay: Inhibition of cytokine signaling; type: cell-based
[4] = Phase 2 clinical study in subjects infected with COVID: safety; type: in vivo, human
Text: Compound 1 was well-tolerated. Adverse events and serious adverse events occurred in 34.0% and 9.7% of subjects treated with compound 1, and 41.2% and 15.7% of subjects treated with placebo, respectively. Adverse events of liver abnormalities or disease occurred in 9.7% and 7.8% of subjects treated with compound 1 and placebo, respectively. Serious infections and venous thromboembolism occurred in 1.0% and none of the subjects treated with compound 1, and 2.0% and 4.9% in subjects treated with placebo, respectively.

JAK2 = JAK2 (Homo sapiens, UniProt O60674); assay: JAK enzyme inhibition; type: biochemical
Sequence of JAK2 (O60674 whole entry): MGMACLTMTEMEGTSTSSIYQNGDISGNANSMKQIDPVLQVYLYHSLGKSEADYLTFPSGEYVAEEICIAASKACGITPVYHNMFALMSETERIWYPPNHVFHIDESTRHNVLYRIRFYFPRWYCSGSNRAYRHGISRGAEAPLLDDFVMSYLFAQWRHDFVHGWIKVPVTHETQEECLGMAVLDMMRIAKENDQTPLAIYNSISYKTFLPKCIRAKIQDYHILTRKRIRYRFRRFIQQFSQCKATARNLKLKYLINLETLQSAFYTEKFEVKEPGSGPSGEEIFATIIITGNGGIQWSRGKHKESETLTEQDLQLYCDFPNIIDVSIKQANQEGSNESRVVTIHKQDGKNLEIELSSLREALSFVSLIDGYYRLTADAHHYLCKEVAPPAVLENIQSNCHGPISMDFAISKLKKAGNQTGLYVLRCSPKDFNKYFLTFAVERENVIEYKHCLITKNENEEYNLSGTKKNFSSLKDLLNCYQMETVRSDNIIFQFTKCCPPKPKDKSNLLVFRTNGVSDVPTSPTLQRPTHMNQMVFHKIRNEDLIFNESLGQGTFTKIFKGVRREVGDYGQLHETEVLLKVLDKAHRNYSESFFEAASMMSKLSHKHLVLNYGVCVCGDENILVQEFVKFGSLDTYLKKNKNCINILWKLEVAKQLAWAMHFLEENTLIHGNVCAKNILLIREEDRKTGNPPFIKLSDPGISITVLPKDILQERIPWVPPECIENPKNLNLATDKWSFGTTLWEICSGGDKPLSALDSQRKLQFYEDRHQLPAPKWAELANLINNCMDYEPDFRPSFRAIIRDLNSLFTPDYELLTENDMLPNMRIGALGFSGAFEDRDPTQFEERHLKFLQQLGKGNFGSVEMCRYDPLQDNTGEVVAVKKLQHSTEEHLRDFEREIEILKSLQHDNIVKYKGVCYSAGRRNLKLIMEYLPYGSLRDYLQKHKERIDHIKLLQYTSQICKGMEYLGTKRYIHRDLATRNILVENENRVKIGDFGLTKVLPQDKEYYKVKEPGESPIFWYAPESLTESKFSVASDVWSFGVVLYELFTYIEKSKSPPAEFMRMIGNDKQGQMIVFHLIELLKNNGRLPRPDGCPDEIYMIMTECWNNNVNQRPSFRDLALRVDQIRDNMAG

IFNγ secretion = assay: Mixed lymphocyte reaction assay; type: cell-based
Text: The mixed lymphocyte reaction assay is an in-vitro assay that mimics transplant rejection.

CCc1cc(O)ccc1-c1ccc2c(-c3nc4c([nH]3)CN(C(C)C)[C@H](C(=O)N3CC(N(C)C)C3)C4)n[nH]c2c1 [Compound 1, (S)-(3-(dimethylamino)azetidin-1-yl)(2-(6-(2-ethyl-4-hydroxyphenyl)-1H-indazol-3-yl)-5-isopropyl-4,5,6,7-tetrahydro-3H-imidazo[4,5-c]pyridin-6-yl)methanone]
plasma concentrations with low-flow nasal oxygen therapy compared to healthy subjects without supplemental oxygen therapy (human, in vivo): similar | plasma exposure (phase 2): low | adverse events, subjects ([1]; 2 of 14 subjects, nasal congestion, epistaxis, considered not related to study drug): 14.3% | safety laboratory measures, electrocardiograms, vital signs, pulse oximetry, spirometry ([1]; all administrations): no clinically relevant changes | severity of adverse events ([1]; all adverse events): mild severity | change from baseline at Day 7 in SaO2/FiO2 ratio, 8-point Clinical Status scale categories, proportion alive and respiratory failure-free at Day 28, vs placebo ([2]; ITT): no difference | RFDs (respiratory failure-free days) from randomization through Day 28, median ([2]; ITT, vs placebo 21, p=0.61): 21 days | time to recovery, median ([2]; all subjects): 10 days | 28-day all-cause mortality, total number of deaths ([2]; all subjects, vs placebo 13): 6 | 28-day all-cause mortality, HR ([2]; all subjects, p=0.08): 0.42 | time to recovery, HR ([2]; all subjects, p=0.12): 1.27 | time to recovery, median ([2]; post-hoc, baseline CRP <150 mg/L): 10 days | 28-day all-cause mortality, HR ([2]; post-hoc, baseline CRP <150 mg/L, p=0.009): 0.097 | time to recovery, HR ([2]; post-hoc, baseline CRP <150 mg/L, p=0.02): 1.48 | 28-day all-cause mortality, total number of deaths ([2]; post-hoc, subjects with baseline CRP <150 mg/L (n=171), vs placebo 9): 1 | time to recovery or 28-day all-cause mortality vs placebo ([2]; subjects with CRP >150 mg/L (n=30)): no difference | inhibition of Abl2 (Abl2): potently inhibit | maximal plasma exposure, fold lower than the protein-adjusted JAK IC50 ([3]; dose level 3 mg): about 20 fold | maximal plasma exposure, fold lower than the protein-adjusted JAK IC50 ([3]; dose level 10 mg): about 7 fold | plasma Cmax relative to the binding-corrected JAK IC50 ([3]; nebulized inhalation at 1 mg, 3 mg and 10 mg for up to 7 days): well under the binding-corrected JAK IC50 | dose proportionality of systemic exposure (AUC0-24) and Cmax ([3]; single and multiple doses, 1 to 10 mg): increased in a dose proportional manner | sulfation metabolism compared to corresponding fluorinated analog (Sulfation metabolism): significantly less sulfation metabolism | inhibition of JAK1 (JAK1): potent inhibitor | inhibition of IL-6 signaling (IL-6 signaling): shown to inhibit | tolerability [4]: well-tolerated | serious infections, subjects ([4]; placebo 2.0%): 1.0% | venous thromboembolism, subjects ([4]; placebo 4.9%): none | adverse events of liver abnormalities or disease, subjects ([4]; placebo 7.8%): 9.7% | serious adverse events, subjects ([4]; placebo 15.7%): 9.7% | adverse events, subjects ([4]; placebo 41.2%): 34.0% | inhibition of JAK2 (JAK2): potent inhibitor | inhibition of IFNγ secretion (IFNγ secretion): effectively inhibit
